The results in this text go back to patent US8148391B2 (Cephalon, Inc., priority 2006, dated 2012).

Each structure is given as a SMILES string. Read-outs that look alike come from different tables or passages of the source.

Assay [1] deals with T1, baculovirus-expressed ALK (Homo sapiens, UniProt Q9UM73).
T1 construct: host or cells: baculovirus expression system
Kind of assay: ALK Kinase Assay (ELISA-type, time-resolved fluorescence). It is filed as biochemical. The settings on record: 1 μM ATP (Km level). The procedure, abridged: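 Wells were coated with phospholipase C-γ at 10 μg/mL in Tris-buffered saline. Adding 30 ng/ml enzyme started the reaction, which ran at 37° C for 15 minutes before Eu-N1 PT66 antibody detection. Percent inhibition versus log10 concentration gave IC50 by variable-slope fit.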
(In general: In an ELISA, binding on a coated surface is turned into a signal by an enzyme label.)

Assay [2] addresses T2, c-Met (cytoplasmic domain) (Homo sapiens, UniProt P08581).
T2 construct: 10 ng/mL c-Met (cytoplasmic domain, Invitrogen Corporation #PV3143); purchased Invitrogen Corporation PV3143
Briefly: c-Met Kinase Assay (same methods as for ALK, with modifications). It counts as biochemical. Particulars: 1 μM ATP (Km level). The procedure, abridged:
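IC50 values were fitted by variable-slope sigmoidal regression of percent inhibition against log compound concentration. Phosphorylation was read with Eu-N1 PT66 antibody after a 15 min, 37 °C reaction. The reaction was initiated with 10 ng/mL c-Met cytoplasmic domain on wells coated with 10 μg/mL PLC-γ in TBS.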

The mark [3] stands for this setting: ALK kinase inhibition, read-out: ALK Activity.
Setting [4] is: c-Met kinase inhibition, read-out: cMet Activity.
Where [5] appears, read: read-out: ALK Activity (ALK Kinase Inhibition, IC50).
The mark [6] stands for this setting: read-out: cMet Activity (c-Met Kinase Inhibition, IC50).

T2 sequence (P08581 956-1390 limits assumed): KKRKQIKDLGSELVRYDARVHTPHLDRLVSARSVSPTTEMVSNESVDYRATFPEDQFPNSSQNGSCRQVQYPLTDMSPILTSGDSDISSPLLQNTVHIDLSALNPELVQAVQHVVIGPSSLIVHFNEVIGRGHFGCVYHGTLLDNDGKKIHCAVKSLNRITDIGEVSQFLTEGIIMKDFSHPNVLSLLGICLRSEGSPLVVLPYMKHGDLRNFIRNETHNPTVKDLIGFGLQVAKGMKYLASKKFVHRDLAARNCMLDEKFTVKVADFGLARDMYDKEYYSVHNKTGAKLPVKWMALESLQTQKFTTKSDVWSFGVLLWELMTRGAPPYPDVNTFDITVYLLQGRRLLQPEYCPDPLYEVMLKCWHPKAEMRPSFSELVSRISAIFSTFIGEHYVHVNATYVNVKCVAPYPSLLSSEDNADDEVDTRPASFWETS
T1 sequence (Q9UM73 19-1620): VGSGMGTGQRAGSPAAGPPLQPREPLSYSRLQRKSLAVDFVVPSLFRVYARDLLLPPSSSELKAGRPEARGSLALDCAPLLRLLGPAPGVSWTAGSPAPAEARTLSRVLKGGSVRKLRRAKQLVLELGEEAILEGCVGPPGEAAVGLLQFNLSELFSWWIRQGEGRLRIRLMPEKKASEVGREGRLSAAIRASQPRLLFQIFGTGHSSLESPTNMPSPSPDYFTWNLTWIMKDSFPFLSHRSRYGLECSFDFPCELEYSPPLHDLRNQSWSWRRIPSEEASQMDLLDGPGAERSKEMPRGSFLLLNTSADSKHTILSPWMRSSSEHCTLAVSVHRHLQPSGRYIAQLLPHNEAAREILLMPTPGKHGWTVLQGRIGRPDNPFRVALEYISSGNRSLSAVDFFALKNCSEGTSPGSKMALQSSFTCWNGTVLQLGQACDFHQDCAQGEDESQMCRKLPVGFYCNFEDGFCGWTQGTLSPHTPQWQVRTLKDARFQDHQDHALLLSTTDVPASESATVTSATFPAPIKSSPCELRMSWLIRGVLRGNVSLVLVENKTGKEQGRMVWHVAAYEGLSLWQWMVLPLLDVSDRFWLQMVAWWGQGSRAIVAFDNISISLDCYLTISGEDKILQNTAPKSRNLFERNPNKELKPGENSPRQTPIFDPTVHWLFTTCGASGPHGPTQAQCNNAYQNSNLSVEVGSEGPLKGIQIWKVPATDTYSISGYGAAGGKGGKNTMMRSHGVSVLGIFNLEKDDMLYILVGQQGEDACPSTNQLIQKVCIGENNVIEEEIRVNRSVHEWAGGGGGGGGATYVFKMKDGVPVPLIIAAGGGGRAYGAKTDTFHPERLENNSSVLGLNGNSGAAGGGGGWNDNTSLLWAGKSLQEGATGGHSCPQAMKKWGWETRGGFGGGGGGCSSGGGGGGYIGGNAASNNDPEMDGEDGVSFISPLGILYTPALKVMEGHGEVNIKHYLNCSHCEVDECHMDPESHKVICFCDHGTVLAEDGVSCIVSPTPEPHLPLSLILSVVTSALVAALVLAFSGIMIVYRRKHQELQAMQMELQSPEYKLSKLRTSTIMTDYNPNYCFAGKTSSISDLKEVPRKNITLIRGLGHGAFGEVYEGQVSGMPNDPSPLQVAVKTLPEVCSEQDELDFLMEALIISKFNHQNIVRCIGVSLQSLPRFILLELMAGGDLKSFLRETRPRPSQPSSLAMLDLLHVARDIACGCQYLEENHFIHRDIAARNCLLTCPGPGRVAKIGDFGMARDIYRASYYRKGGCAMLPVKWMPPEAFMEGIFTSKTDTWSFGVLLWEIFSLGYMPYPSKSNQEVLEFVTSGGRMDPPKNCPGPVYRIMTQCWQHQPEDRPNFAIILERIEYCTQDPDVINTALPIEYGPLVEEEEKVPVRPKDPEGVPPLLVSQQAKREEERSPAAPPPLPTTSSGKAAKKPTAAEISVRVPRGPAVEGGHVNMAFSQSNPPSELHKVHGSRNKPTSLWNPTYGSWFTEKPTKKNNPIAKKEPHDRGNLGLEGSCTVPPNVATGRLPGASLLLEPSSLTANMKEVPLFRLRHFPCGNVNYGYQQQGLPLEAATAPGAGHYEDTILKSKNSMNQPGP

In the case of `CNC(=O)c1ccccc1Nc1nc(Nc2ccc3c(c2)N(C)CCN(CCOC)C3)ncc1Cl` [Example 484, 2-{5-Chloro-2-[4-(2-methoxy-ethyl)-1-methyl-2,3,4,5-tetrahydro-1H-benzo[e][1,4]diazepin-8-ylamino]-pyrimidin-4-ylamino}-N-methyl-benzamide], the IC50 in assay [1] (setting [3]) and in assay [2] (setting [4]) was less than 100 nM throughout.
On to `CNC(=O)c1ccccc1Nc1nc(Nc2ccc3c(c2)N(C)CCN(CCO)C3)ncc1Cl` [Example 485, 2-{5-Chloro-2-[4-(2-hydroxy-ethyl)-1-methyl-2,3,4,5-tetrahydro-1H-benzo[e][1,4]diazepin-8-ylamino]-pyrimidin-4-ylamino}-N-methyl-benzamide], for which the IC50 in assay [1] (setting [3]) and in assay [2] (setting [4]) was less than 100 nM in each case.
In the case of `CNC(=O)c1ccccc1Nc1nc(Nc2ccc3c(c2)N(C)CCN(C(=O)n2ccnc2)C3)ncc1Cl` [Example 486, 2-{5-Chloro-2-[4-(imidazole-1-carbonyl)-1-methyl-2,3,4,5-tetrahydro-1H-benzo[e][1,4]diazepin-8-ylamino]-pyrimidin-4-ylamino}-N-methyl-benzamide], the IC50 in assay [1] (setting [3]) and in assay [2] (setting [4]) was less than 100 nM in each case.
As for `C#CCN1CCN(C)c2cc(Nc3ncc(Cl)c(Nc4ccccc4C(=O)NC)n3)ccc2C1` [Example 487, 2-[5-Chloro-2-(1-methyl-4-prop-2-ynyl-2,3,4,5-tetrahydro-1H-benzo[e][1,4]diazepin-8-ylamino)-pyrimidin-4-ylamino]-N-methyl-benzamide], the IC50 in assay [1] (setting [3]) and in assay [2] (setting [4]) was less than 100 nM throughout.
For the compound `C#CCN1CCN(C)c2cc(Nc3ncc(Cl)c(Nc4ccccc4C(=O)N(C)CC#C)n3)ccc2C1` [Example 488, 2-[5-Chloro-2-(1-methyl-4-prop-2-ynyl-2,3,4,5-tetrahydro-1H-benzo[e][1,4]diazepin-8-ylamino)-pyrimidin-4-ylamino]-N-methyl-N-prop-2-ynyl-benzamide], the IC50 in assay [1] (setting [3]) and in assay [2] (setting [4]) was less than 100 nM throughout.
As to `CNC(=O)c1ccccc1Nc1nc(Nc2ccc3c(c2)N(C)CCN(C(=O)N(C)C)C3)ncc1Cl` [Example 489, 8-[5-Chloro-4-(2-methylcarbamoyl-phenylamino)-pyrimidin-2-ylamino]-1-methyl-1,2,3,5-tetrahydro-benzo[e][1,4]diazepine-4-carboxylic acid dimethylamide], the IC50 in assay [1] (setting [3]) and in assay [2] (setting [4]) was less than 100 nM in each case.
Regarding `COCCN1CCN(C)c2cc(Nc3ncc(Cl)c(N[C@@H]4CCCC[C@H]4NS(C)(=O)=O)n3)c(OC)cc2C1` [Example 490, N-((1R,2R)-2-{5-Chloro-2-[7-methoxy-4-(2-methoxy-ethyl)-1-methyl-2,3,4,5-tetrahydro-1H-benzo[e][1,4]diazepin-8-ylamino]-pyrimidin-4-ylamino}-cyclohexyl)-methanesulfonamide], the IC50 in assay [1] (setting [3]) is less than 100 nM; in assay [2] (setting [4]), more than 10000 nM.
With `COCCN1CCN(C)c2cc(Nc3ncc(Cl)c(NC4C5CCC(C5)C4C(N)=O)n3)c(OC)cc2C1` (stereo not drawn) [Example 491, (2-exo,3-exo)-3-{5-Chloro-2-[7-methoxy-4-(2-methoxy-ethyl)-1-methyl-2,3,4,5-tetrahydro-1H-benzo[e][1,4]diazepin-8-ylamino]-pyrimidin-4-ylamino}-bicyclo[2.2.1]heptane-2-carboxylic acid amide], the IC50 in assay [1] (setting [3]) was less than 100 nM; in assay [2] (setting [4]) it was more than 10000 nM.
As for `COc1cc2c(cc1Nc1ncc(Cl)c(N[C@@H]3CCCC[C@H]3NS(C)(=O)=O)n1)N(C)CCN(C[C@@H](O)C(F)(F)F)C2` [Example 492, N-((1R,2R)-2-{5-Chloro-2-[7-methoxy-1-methyl-4-((R)-3,3,3-trifluoro-2-hydroxy-propyl)-2,3,4,5-tetrahydro-1H-benzo[e][1,4]diazepin-8-ylamino]-pyrimidin-4-ylamino}-cyclohexyl)-methanesulfonamide], the IC50 in assay [1] (setting [3]) was less than 100 nM; in assay [2] (setting [4]) it was more than 10000 nM.
The like results for `COc1cc2c(cc1Nc1ncc(Cl)c(Nc3ccc(N4CCOCC4)cc3OC)n1)N(C)CCNC2` [Example 493, 5-Chloro-N*2*-(7-methoxy-1-methyl-2,3,4,5-tetrahydro-1H-benzo[e][1,4]diazepin-8-yl)-N*4*-(2-methoxy-4-morpholin-4-yl-phenyl)-pyrimidine-2,4-diamine] were, in that order, less than 100 nM and more than 10000 nM.
Taken in the same sequence, the figures for `COc1cc2c(cc1Nc1ncc(Cl)c(Nc3ccc(N4CCOCC4)cc3OC)n1)N(C)CCN(S(C)(=O)=O)C2` [Example 494, 5-Chloro-N*2*-(4-methanesulfonyl-7-methoxy-1-methyl-2,3,4,5-tetrahydro-1H-benzo[e][1,4]diazepin-8-yl)-N*4*-(2-methoxy-4-morpholin-4-yl-phenyl)-pyrimidine-2,4-diamine] were less than 100 nM and more than 10000 nM.
For the compound `COCCN1CCN(C)c2cc(Nc3ncc(Cl)c(Nc4ccc(N5CCOCC5)cc4OC)n3)c(OC)cc2C1` [Example 495, 5-Chloro-N*2*-[7-methoxy-4-(2-methoxy-ethyl)-1-methyl-2,3,4,5-tetrahydro-1H-benzo[e][1,4]diazepin-8-yl]-N*4*-(2-methoxy-4-morpholin-4-yl-phenyl)-pyrimidine-2,4-diamine], the IC50 is less than 100 nM in assay [1] (setting [3]) and more than 10000 nM in assay [2] (setting [4]).
For `COc1cc2c(cc1Nc1ncc(Cl)c(Nc3ccc(N4CCOCC4)cc3OC)n1)N(C)CCN(C[C@@H](O)C(F)(F)F)C2` [Example 496, (R)-3-{8-[5-Chloro-4-(2-methoxy-4-morpholin-4-yl-phenylamino)-pyrimidin-2-ylamino]-7-methoxy-1-methyl-1,2,3,5-tetrahydro-benzo[e][1,4]diazepin-4-yl}-1,1,1-trifluoro-propan-2-ol], the IC50 in assay [1] (setting [3]) was less than 100 nM; in assay [2] (setting [4]) it was more than 10000 nM.
Regarding `CN1CCNCc2cc(OCC(F)(F)F)c(Nc3ncc(Cl)c(N[C@@H]4CCCC[C@H]4NS(C)(=O)=O)n3)cc21` [Example 497, N-((1R,2R)-2-{5-Chloro-2-[1-methyl-7-(2,2,2-trifluoro-ethoxy)-2,3,4,5-tetrahydro-1H-benzo[e][1,4]diazepin-8-ylamino]-pyrimidin-4-ylamino}-cyclohexyl)-methanesulfonamide], the IC50 is 100 to 1000 nM in assay [1] (setting [3]) and 1000 to 10000 nM in assay [2] (setting [4]).
Consider `CN1CCN(C[C@@H](O)C(F)(F)F)Cc2cc(OCC(F)(F)F)c(Nc3ncc(Cl)c(N[C@@H]4CCCC[C@H]4NS(C)(=O)=O)n3)cc21` [Example 498, N-((1R,2R)-2-{5-Chloro-2-[1-methyl-7-(2,2,2-trifluoro-ethoxy)-4-((R)-3,3,3-trifluoro-2-hydroxy-propyl)-2,3,4,5-tetrahydro-1H-benzo[e][1,4]diazepin-8-ylamino]-pyrimidin-4-ylamino}-cyclohexyl)-methanesulfonamide], for which the IC50 in assay [1] (setting [5]) was 100 to 1000 nM; in assay [2] (setting [6]) it was more than 10000 nM.
Consider `CC(C)N1CCNC(=O)c2ccc(Nc3ncc(Cl)c(N[C@@H]4CCCC[C@H]4NS(C)(=O)=O)n3)cc21` [Example 499, N-{(1R,2R)-2-[5-Chloro-2-(1-isopropyl-5-oxo-2,3,4,5-tetrahydro-1H-benzo[e][1,4]diazepin-8-ylamino)-pyrimidin-4-ylamino]-cyclohexyl}-methanesulfonamide], for which the IC50 in assay [1] (setting [5]) and in assay [2] (setting [6]) was 100 to 1000 nM each time.
Turning to `CNC(=O)c1ccccc1Nc1nc(Nc2ccc3c(c2)OCCCO3)ncc1Cl` [Example 511], the IC50 in assay [1] (setting [5]) and in assay [2] (setting [6]) was less than 100 nM each time.
With `CNC(=O)c1ccccc1Nc1nc(Nc2ccc3c(c2)OCCNC3=O)ncc1Cl` [Example 512, 2-[5-Chloro-2-(5-oxo-2,3,4,5-tetrahydro-benzo[f][1,4]oxazepin-8-ylamino)-pyrimidin-4-ylamino]-N-methyl-benzamide], the IC50 in assay [1] (setting [5]) and in assay [2] (setting [6]) was less than 100 nM each time.
For `CNC(=O)c1ccccc1Nc1nc(Nc2ccc3c(c2)NC(=O)CCC3)ncc1Cl` [Example 513, 2-[5-Chloro-2-(2-oxo-2,3,4,5-tetrahydro-1H-benzo[b]azepin-8-ylamino)-pyrimidin-4-ylamino]-N-methyl benzamide], the IC50 in assay [1] (setting [5]) and in assay [2] (setting [6]) was less than 100 nM throughout.
Turning to `CNC(=O)c1ccccc1Nc1nc(Nc2ccc3c(c2)OCCN(C)C3=O)ncc1Cl` [Example 514, 2-[5-chloro-2-(4-methyl-5-oxo-2,3,4,5-tetrahydro-benzo[f][1,4]oxazepin-8-ylamino)-pyrimidin-4-ylamino]-N-methyl-benzamide], the IC50 in assay [1] (setting [5]) and in assay [2] (setting [6]) was less than 100 nM throughout.
`CCN1CCOc2cc(Nc3ncc(Cl)c(Nc4ccccc4C(=O)NC)n3)ccc2C1=O` [Example 515, 2-[5-Chloro-2-(4-ethyl-5-oxo-2,3,4,5-tetrahydro-benzo[f][1,4]oxazepin-8-ylamino)-pyrimidin-4-ylamino]-N-methyl-benzamide]: the IC50 in assay [1] (setting [5]) and in assay [2] (setting [6]) was less than 100 nM each time.
As for `CNC(=O)c1ccccc1Nc1nc(Nc2ccc3c(c2)CNCCS3)ncc1Cl` [Example 516, 2-[5-Chloro-2-(6,7,8,9-tetrahydro-5-thia-aza-benzocyclohepten-2-ylamino)-pyrimidin-4-ylamino]-N-methyl-benzamide], the IC50 in assay [1] (setting [5]) and in assay [2] (setting [6]) was less than 100 nM in each case.
With `CCN1CCSc2ccc(Nc3ncc(Cl)c(Nc4ccccc4C(=O)NC)n3)cc2C1` [Example 517, 2-[5-Chloro-2-(8-ethyl-6,7,8,9-tetrahydro-5-thia-aza-benzocyclohepten-2-ylamino)-pyrimidin-4-ylamino]-N-methyl-benzamide], the IC50 in assay [1] (setting [5]) and in assay [2] (setting [6]) was less than 100 nM throughout.
